In this assay the target is T1, hAGT (Homo sapiens, UniProt P16455).
T1 construct: gene MGMT; parental hAGT
T1 sequence (P16455 1-207): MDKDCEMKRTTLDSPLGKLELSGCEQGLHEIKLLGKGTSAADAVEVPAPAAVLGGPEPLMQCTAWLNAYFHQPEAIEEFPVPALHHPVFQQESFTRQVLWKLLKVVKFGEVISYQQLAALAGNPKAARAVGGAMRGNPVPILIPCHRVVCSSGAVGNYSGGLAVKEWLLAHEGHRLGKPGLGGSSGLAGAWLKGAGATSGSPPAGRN
As to the kind of experiment: biochemical. Details: fluorescence polarization labeling kinetics of purified tag proteins with TMR substrates, apparent second-order rate constant. The settings on record: read-out: hAGT kapp x 10^3.

In the case of `CN(C)c1ccc2c(-c3cc(C(=O)NCc4ccc(COc5cc(Cl)nc(N)n5)cc4)ccc3C(=O)[O-])c3ccc(=[N+](C)C)cc-3oc2c1` [CP–TMR], the kinact/KI was found to be 800 ± 40 M⁻¹ s⁻¹. As for `CN(C)c1ccc2c(-c3cc(C(=O)NCc4ccc(COc5cc(C(F)(F)F)nc(N)n5)cc4)ccc3C(=O)[O-])c3ccc(=[N+](C)C)cc-3oc2c1` [compound 4, CF3P–TMR], the figure is 640 ± 40 M⁻¹ s⁻¹; as for `CN(C)c1ccc2c(-c3cc(C(=O)NCc4ccc(COc5cc(Cl)nc(N)n5)cc4F)ccc3C(=O)[O-])c3ccc(=[N+](C)C)cc-3oc2c1` [compound 22, CF–TMR], 550 ± 50 M⁻¹ s⁻¹; as for `CN(C)c1ccc2c(-c3cc(C(=O)NCc4ccc(COc5cc(C(F)(F)F)nc(N)n5)cc4F)ccc3C(=O)[O-])c3ccc(=[N+](C)C)cc-3oc2c1` [compound 30, TF–TMR], 520 ± 60 M⁻¹ s⁻¹.

The record behind these values is paper PMC12568630, “SNAP-tag2 for faster and brighter protein labeling” (Nature Chemical Biology, 2025).
